The subject of one data set is HepG2-A16-CD81EGFP cells. Put plainly: cells. The settings on record: Homo sapiens.
For data set [1] the following is noted: only compound of the set tested with exposure; cited from earlier work.
For data set [2], the system named is Plasmodium berghei (Pb-Luc) exoerythrocytic-stage parasites. Put plainly: microbe, parasite or virus in culture.
The subject of data set [3] is Plasmodium cynomolgi exoerythrocytic-stage small (hypnozoites) and large (liver stage schizonts) parasites. Nature of the data set: P. cynomolgi liver assay in primary hepatocytes. As to conditions: for inhibition at 0.1 µM / inhibition at 1 µM / inhibition at 10 µM: Plasmodium cynomolgi, Hepatocyte.
[4] abbreviates: read-out: % inhibition normalized to untreated control, Large.
Setting [5] is: read-out: % inhibition normalized to untreated control, Small.

Read-outs that look alike come from different tables or passages of the source.

This is an account of results in article PMC4890880 (ACS infectious diseases, 2016).

Take `Brc1ccc(Nc2nc3ccccc3nc2Nc2ccc(Br)cc2)cc1` [MMV007224]: the cytotoxicity at 50 µM with HepG2-A16-CD81EGFP cells (HepG2, read-out: HepG2 Tox% @ 50 uM rep1) was 100%. The IC50 is 1940 nM in the data set on HepG2-A16-CD81EGFP cells (HepG2, read-out: Tox IC50) and 170 nM in data set [2] (read-out: PbLuc IC50, dose response, 1/3 dilutions, max conc. 10 or 50 uM, unit inferred). The inhibition at 50 µM in the data set with HepG2-A16-CD81EGFP cells (HepG2, read-out: Tox max inhibition (%) @ 50 uM) turned out to be 99%; in data set [2] (read-out: Inhibition% @ 50 uM rep1), 103%; in data set [2] (read-out: Inhibition% @ 50 uM rep2) it was 103%; in data set [2] (read-out: PbLuc max inhibition (%) @ 50 uM), 101%. For the same compound, in data set [1], the “pharmacokinetic exposure in vivo” value is “any pharmacokinetic exposure in vivo”. For the same compound, the results for the inhibition at 0.1 µM in data set [3] (setting [4]) and in data set [3] (setting [5]) were 23% and 30%, respectively. In addition, the inhibition at 1 µM in data set [3] (setting [4]) was determined as 43%; in data set [3] (setting [5]) it was 20%. For the same compound, the inhibition at 10 µM in data set [3] (setting [4]) worked out at 96%; in data set [3] (setting [5]), 67%. In data set [3] (at 10 μM, in words), the “activity against small or large forms” value is recorded as “moderate activity”.
